The supplement of paper PMC10307832

Experiments:
Test in all cases: relative viability (nuclei count vs DMSO), 5 days (fraction); higher = more cells survive
[1] = compound: C1=CC(=CC=C1NC(=S)NNC2=C(C=C(C=C2[N+](=O)[O-])C(F)(F)F)[N+](=O)[O-])F [Kobe2602] + CC(=O)c1c(C)c2cnc(Nc3ccc(N4CCNCC4)cn3)nc2n(C2CCCC2)c1=O [Palbociclib] (partner 0.5 µM)
Summary of the method: (§1)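 Relative viability divides the nuclei count in treated wells by that in vehicle wells. Lung cancer cell lines were seeded in 1536-well plates, dosed by pin tool the next day, and fixed and stained after 5 days in one step with final 0.05% Triton X-100, 1% formaldehyde and 1 ug/ml Hoechst. Dosing was a single drug or a fixed anchor-drug dose plus five library-drug doses (not always all listed) in √10 steps, and values are medians of duplicate plates imaged at 4×.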

[2] = compound: C1=CC(=CC=C1NC(=S)NNC2=C(C=C(C=C2[N+](=O)[O-])C(F)(F)F)[N+](=O)[O-])F [Kobe2602] + N=C(N)NC(=N)NCCc1ccccc1 [Phenformin] (partner 250 µM)
Summary of the method: as §1

[3] = compound: COc1cc2nccc(Oc3ccc(NC(=O)C4(C(=O)Nc5ccc(F)cc5)CC4)cc3)c2cc1OC [Cabozantinib] + C[C@@H](Oc1cc(-c2cnn(C3CCNCC3)c2)cnc1N)c1c(Cl)ccc(F)c1Cl [Crizotinib] (partner 1 µM)
Summary of the method: as §1

[4] = compound: O[C@@H](COc1cccc2ncccc12)CN1CCN([C@@H]2c3ccccc3[C@@H]3[C@H](c4ccccc42)C3(F)F)CC1 [Zosuquidar] + CC(C)C[C@H](NC(=O)[C@H](Cc1ccccc1)NC(=O)c1cnccn1)B(O)O [Bortezomib] (partner 0.002 µM)
Summary of the method: as §1

| Cell Line | relative viability ([1]; first compound 0.2 µM) | relative viability ([1]; first compound 0.6325 µM) | relative viability ([1]; first compound 2 µM) | relative viability ([1]; first compound 6.325 µM) | relative viability ([1]; first compound 20 µM) | relative viability ([2]; first compound 0.2 µM) | relative viability ([2]; first compound 0.6325 µM) | relative viability ([2]; first compound 2 µM) | relative viability ([2]; first compound 6.325 µM) | relative viability ([2]; first compound 20 µM) | relative viability ([3]; first compound 0.02 µM) | relative viability ([3]; first compound 0.06325 µM) | relative viability ([3]; first compound 0.2 µM) | relative viability ([3]; first compound 0.6325 µM) | relative viability ([3]; first compound 2 µM) | relative viability ([4]; first compound 0.01 µM) | relative viability ([4]; first compound 0.03162 µM) | relative viability ([4]; first compound 0.1 µM) | relative viability ([4]; first compound 0.3162 µM) | relative viability ([4]; first compound 1 µM) |
| --- | --- | --- | --- | --- | --- | --- | --- | --- | --- | --- | --- | --- | --- | --- | --- | --- | --- | --- | --- | --- |
| SW 900 | 0.621 | 0.53 | 0.559 | 0.567 | 0.551 | 0.609 | 0.843 | 0.521 | 0.691 | 0.775 |  |  |  |  |  |  |  |  |  |  |
| NCI-H358 | 0.14 | 0.128 | 0.142 | 0.144 | 0.138 | 0.381 | 0.391 | 0.323 | 0.371 | 0.353 | 0.717 | 0.708 | 0.576 | 0.401 | 0.382 |  |  |  |  |  |
| PC-3 [JPC-3] | 0.587 | 0.524 | 0.561 | 0.482 | 0.501 | 0.489 | 0.508 | 0.525 | 0.464 | 0.502 | 1.07 | 1.1 |  | 0.919 | 0.967 | 0.849 | 0.879 | 0.706 | 0.765 | 0.863 |
| NCI-H1651 | 0.528 | 0.52 | 0.521 | 0.524 | 0.518 | 0.415 | 0.37 | 0.356 | 0.333 | 0.414 | 0.821 | 0.866 | 0.885 | 0.846 | 0.842 | 0.928 | 0.984 | 0.882 | 0.91 | 0.866 |
| HCC-827 | 0.528 | 0.574 | 0.621 | 0.489 | 0.53 | 0.428 | 0.441 | 0.464 | 0.364 | 0.413 | 0.888 | 0.942 |  | 0.939 | 0.978 | 0.931 | 0.961 | 1.05 | 1.05 | 0.844 |
| NCI-H1299 |  |  |  |  |  |  |  |  |  |  | 0.977 | 0.998 | 0.648 | 0.973 | 0.993 | 1.01 | 1.01 | 0.997 | 0.962 | 1.03 |
| A549 |  |  |  |  |  | 0.163 | 0.182 | 0.199 | 0.192 | 0.196 | 0.812 | 0.853 | 0.787 | 0.79 | 0.729 |  |  |  |  |  |
| NCI-H2342 | 0.537 | 0.563 | 0.467 | 0.532 | 0.535 | 0.658 | 0.607 | 0.563 | 0.553 | 0.662 |  |  |  |  |  |  |  |  |  |  |
| NCI-H1623 |  |  |  |  |  | 0.633 | 0.571 | 0.563 | 0.555 | 0.589 |  |  |  |  |  |  |  |  |  |  |
| Calu-6 |  |  |  |  |  |  |  |  |  |  | 0.788 | 0.925 | 0.742 | 0.75 | 0.773 | 0.955 | 1.05 | 1.13 | 1.05 | 1.15 |
| NCI-H522 | 1.13 | 1.1 | 0.915 | 1.11 | 0.993 | 0.731 | 0.63 | 0.646 | 0.732 | 0.623 |  |  |  |  |  |  |  |  |  |  |
